Results as given in paper PMC10347550, “Cyclic Ruthenium-Peptide Conjugates as Integrin-Targeting Phototherapeutic Prodrugs for the Treatment of Brain Tumors” (Journal of the American Chemical Society, 2023).

Experiments:
U87MG cells = assay: 2D cytotoxicity assay, 24 h DLI & no wash, SRB endpoint; format: cell-based, human; settings: normoxic 2D monolayer U87MG; for PI: mixture of Δ and Λ isomers (Figure S34a); for EC50: mixture of Δ and Λ isomers, green light 520 nm, 13.1 J/cm^2 (Figure S34a), read-out: EC50,light
Description: For each complex, two identical plates were prepared, one of which was irradiated with light, while the other was used as a dark control. […] Finally, at t = 96 h, 100 μL of cold trichloroacetic acid (10% w/v) was added to each well to fix the cells, and all plates were then transferred to a 4 °C refrigerator for 48 h before performing an SRB cell quantification endpoint assay.[72] Trichloroacetic acid was first removed and each plate was gently washed with demi water 3–5 times. Then, each well was dried in the air, and 100 μL of 0.6% SRB solution (0.6% w/v in 1% v/v acetic acid/H2O solution) was added into each well where it was allowed to stain for 30 min. Then, the plates were washed 3–5 times using an acetic acid solution (1% v/v). Once the plate was washed it was allowed to dry overnight. Then, 200 μL of 10 mM Tris base buffer was added to each well and the plate was allowed to sit on an orbital shaker for 0.5–16 h. After mixing, the absorbance of each well was determined by an M1000 Tecan Reader, reading at 510 nm. All experiments were conducted in independent biological triplicate. The obtained data were analyzed with Graphpad Prism 5 using the dose–response two-parameter Hill slope equation (eq 1) to obtain the half-maximal effective concentrations EC50 (defined as the concentration of drug that kills 50% of cells, compared to the untreated control). [drawing 1] 1

[1] = Biodistribution of Ru by ICP-OES; format: in vivo, mice; settings: for Ru content, Heart / Ru content, Kidney / Ru content, Liver / Ru content, Lung / Ru content, Spleen / Ru content, Tumor: U87MG tumor-bearing nude mice, ICP-OES, n = 3, ± SD
Description: (§1) All animal studies were approved by the Institutional Animal Care and Use Committee of the US National Institutes of Health and were performed according to the relevant guidelines (8th edition, 2011). Female BALB/c nude mice (6 weeks old) were purchased from Shanghai SLAC Laboratory Animal Co. LTD (Shanghai, China). Tumor-bearing mice were obtained by subcutaneously injecting U87MG tumor cells (2 × 10^6 cells per mouse, dispersed in 100 μL of FBS) into the right hind limb and waiting for 15 days until the tumor volume reached 50–100 mm^3.
The Blab/c nude mice bearing U87MG tumors were randomly assigned to two groups (N = 15) and received an intravenous injection of [1]Cl2 (7.7 mg/kg) or [2]Cl2 (5 mg/kg) at the same molar dose. Then, the mice were sacrificed at 2, 6, 12, 18, and 24 h post-injection (each time point contained 3 mice). The main organs (heart, liver, spleen, kidney, lung) and tumor tissue were dissected. Then, around 1 g of organs and tumors was lysed in a 7 mL mixture solution containing 5 mL of 65% HNO3 and 2 mL of 30% (w/w) H2O2 at 100 °C. After 12 h, all solutions had evaporated, and 5 mL of aqueous solution containing 2% HNO3 was added. The Ru content in all samples was measured by ICP-OES (JY-Horiba ICP-OES Ultima 2).

subcutaneous U87MG tumor = assay: In vivo tumor inhibition study; set-up: species or system mice; settings: for TUNEL staining of tumor slices: day 7, combined with 520 nm laser irradiation; for effect of light irradiation on tumor growth, light group compared to dark group: single i.v. dose day 0 ([1]Cl2 7.7 mg/kg, [2]Cl2 5 mg/kg), 520 nm laser 60 J/cm^2 at DLI 12 h, tumor volume over 15 days
Description: as §1
The mice bearing U87MG solid tumors were first randomly divided into 6 groups (N = 5): PBS, light, [1]Cl2, [2]Cl2, [1]Cl2 + light, and [2]Cl2 + light. The injectable solution of [1]Cl2 or [2]Cl2 was obtained by diluting the stock solution of the compound in DMSO (10 mg/mL) 10 times by RPMI-1640 medium containing 10% FBS, 100 units/mL penicillin, and 100 μg/mL streptomycin. The injection doses of [1]Cl2 and [2]Cl2 were set as 7.7, 5 mg/kg, respectively (injection volume = 100 μL of the same molar weight of Ru in the last four groups). In groups 2, 5, and 6, laser irradiation (520 nm, 100 mW/cm^2, 5 min) was carried out twice at 12 h post-injection, with a 5 min interval. Accordingly, the total laser dose for each illumination was 100 mW/cm^2, 10 min, and 60 J/cm^2. Treatments in all groups were carried out only once on day 0. Digital photos of tumor-bearing mice, the tumor size (length and width, measured with a caliper), and mouse body weight in all groups were recorded every third day. The tumor volume was calculated according to the standard formula: 0.5 × length × width^2. Both the average tumor volume and body weight were followed for 15 days. On day 7, one mouse from each group was sacrificed and then the tumor tissue was dissected and fixed with 10% paraformaldehyde. The tumor cell damage and apoptosis and necrosis conditions were evaluated by H&E or TUNEL stained protocols. On day 15 (the end of the tumor treatment period), all nude mice were humanly sacrificed, and the main organs (heart, liver, spleen, kidney, and lung) and tumors were resected. Digital photographs of tumors in each group were immediately obtained. All normal tissues were fixed with 10% paraformaldehyde and further analyzed in accordance with the H&E staining protocol, to estimate their off-target side effect after various treatments.

[2] = Nanoaggregation in Opti-MEM by DLS and TEM; format: physicochemical; settings: 50 μM in Opti-MEM with 2.5% FCS, dark, 24 h (Figure S20)
Description: DLS was used to determine the distribution of particles in complex solutions (50 μM) in Opti-MEM (Gibco complete medium 11058-021, supplemented with 0.2% v/v penicillin/streptomycin (P/S), and 1% v/v glutamine) with or without 2.5% fetal calf serum (FCS) proteins via a ZEN1600 Zetasizer Nano instrument (Malvern Instruments Limited) operated with a 633 nm laser.
The TEM experiments were carried out with a TEM JEOL 1010:100 kV transmission electron microscope using a Formvar/carbon-coated copper grid (Polysciences Inc.). For the preparation of samples, a 1 mM stock aqua solution was diluted to 50 μM by Opti-MEM, after which, each drop (15 μL) of the complex solution was deposited on a parafilm (Bemis, HS234526C). The grids (Electron Microscopy Sciences, 71137) were placed on top of the drops for 5 min and then the excess liquid on the grid was removed with filter paper and air dried for 2 h for the TEM measurement. The TEM measurements were carried out under vacuum conditions.

[3] = 2 h after i.v. injection of [1]Cl2 7.7 mg/kg or [2]Cl2 5 mg/kg
[4] = 6 h after i.v. injection of [1]Cl2 7.7 mg/kg or [2]Cl2 5 mg/kg
[5] = 12 h after i.v. injection of [1]Cl2 7.7 mg/kg or [2]Cl2 5 mg/kg
[6] = 18 h after i.v. injection of [1]Cl2 7.7 mg/kg or [2]Cl2 5 mg/kg
[7] = 24 h after i.v. injection of [1]Cl2 7.7 mg/kg or [2]Cl2 5 mg/kg

Compound	PI (U87MG cells)	EC50 (U87MG cells) [nM]	Ru content, Heart [1, 3] [%ID/g]	Ru content, Kidney [1, 3] [%ID/g]	Ru content, Liver [1, 3] [%ID/g]	Ru content, Lung [1, 3] [%ID/g]	Ru content, Spleen [1, 3] [%ID/g]	Ru content, Tumor [1, 3] [%ID/g]	Ru content, Heart [1, 4] [%ID/g]	Ru content, Kidney [1, 4] [%ID/g]	Ru content, Liver [1, 4] [%ID/g]	Ru content, Lung [1, 4] [%ID/g]	Ru content, Spleen [1, 4] [%ID/g]	Ru content, Tumor [1, 4] [%ID/g]	Ru content, Heart [1, 5] [%ID/g]	Ru content, Kidney [1, 5] [%ID/g]	Ru content, Liver [1, 5] [%ID/g]	Ru content, Lung [1, 5] [%ID/g]	Ru content, Spleen [1, 5] [%ID/g]	Ru content, Tumor [1, 5] [%ID/g]	other results
[Ru(Ph2phen)2(κ^S,κ^N-(Ac-MRGDH-NH2))]Cl2 (sidechain bridge or staple) [[1]Cl2, mixture of diastereoisomers used for the in vivo study]	16	2400	2.2 ± 0.4	3.2 ± 0.3	40.2 ± 2.8	1.5 ± 0.2	1.9 ± 0.1	2.0 ± 0.5	1.8 ± 0.3	2.0 ± 0.2	29.0 ± 1.6	1.6 ± 0.2	2.1 ± 0.5	7.3 ± 0.4	1.8 ± 0.2	1.7 ± 0.3	16.5 ± 3.5	1.6 ± 0.2	2.2 ± 0.4	15.7 ± 1.3	amount of ruthenium in the tumor higher than for the group treated with [2]Cl2 ([1]; 12 h after i.v. injection, same molar dose, P < 0.01): 28%; Ru content, Heart [1, 6]: 1.9 ± 0.2 %ID/g; Ru content, Kidney [1, 6]: 1.9 ± 0.2 %ID/g; Ru content, Liver [1, 6]: 14.4 ± 4.3 %ID/g; Ru content, Lung [1, 6]: 1.8 ± 0.3 %ID/g; Ru content, Spleen [1, 6]: 1.9 ± 0.3 %ID/g; Ru content, Tumor [1, 6]: 7.2 ± 0.5 %ID/g; Ru content, Heart [1, 7]: 1.8 ± 0.1 %ID/g; Ru content, Kidney [1, 7]: 1.8 ± 0.2 %ID/g; Ru content, Liver [1, 7]: 6.1 ± 1.2 %ID/g; Ru content, Lung [1, 7]: 1.7 ± 0.2 %ID/g; Ru content, Spleen [1, 7]: 1.7 ± 0.2 %ID/g; Ru content, Tumor [1, 7]: 4.1 ± 1.0 %ID/g; TUNEL staining of tumor slices (subcutaneous U87MG tumor): induced outstanding apoptosis of tumor cells; antitumor efficiency compared to [2]Cl2 + light (subcutaneous U87MG tumor; single i.v. dose 7.7 mg/kg + 520 nm laser 60 J/cm^2 at DLI 12 h, 15 days, n = 5): better antitumor efficiency; effect of light irradiation on tumor growth, light group compared to dark group (subcutaneous U87MG tumor; n = 5): much stronger tumor growth suppression
CSCc1ccccn1.[Cl-].[Cl-].[Ru+2].c1ccc(-c2ccnc3c2ccc2c(-c4ccccc4)ccnc23)cc1.c1ccc(-c2ccnc3c2ccc2c(-c4ccccc4)ccnc23)cc1 [[2]Cl2, rac-[Ru(Ph2phen)2(mtmp)]Cl2, reference compound]	6	300	2.0 ± 0.3	3.2 ± 0.4	40.5 ± 3.3	1.5 ± 0.3	4.6 ± 0.4	1.8 ± 0.3	1.9 ± 0.5	2.0 ± 0.4	29.5 ± 1.9	1.6 ± 0.2	2.2 ± 0.5	6.5 ± 0.5	1.8 ± 0.3	1.7 ± 0.2	16.3 ± 3.3	1.7 ± 0.2	2.2 ± 0.3	12.3 ± 1.5	nanoparticle formation (DLS) [2]: not; Ru content, Heart [1, 6]: 1.7 ± 0.2 %ID/g; Ru content, Kidney [1, 6]: 1.9 ± 0.2 %ID/g; Ru content, Liver [1, 6]: 14.6 ± 2.3 %ID/g; Ru content, Lung [1, 6]: 1.7 ± 0.1 %ID/g; Ru content, Spleen [1, 6]: 1.6 ± 0.2 %ID/g; Ru content, Tumor [1, 6]: 2.8 ± 0.6 %ID/g; Ru content, Heart [1, 7]: 1.7 ± 0.2 %ID/g; Ru content, Kidney [1, 7]: 1.5 ± 0.1 %ID/g; Ru content, Liver [1, 7]: 7.3 ± 0.8 %ID/g; Ru content, Lung [1, 7]: 1.7 ± 0.1 %ID/g; Ru content, Spleen [1, 7]: 1.7 ± 0.2 %ID/g; Ru content, Tumor [1, 7]: 1.7 ± 0.1 %ID/g; TUNEL staining of tumor slices (subcutaneous U87MG tumor): induced outstanding apoptosis of tumor cells; effect of light irradiation on tumor growth, light group compared to dark group (subcutaneous U87MG tumor; n = 5): statistically nonsignificant
